According to patent US9238631B2, “Radiolabeled amino acids for diagnostic imaging” (PIRAMAL IMAGING SA, priority 2011, dated 2016):

Legend:
[1] = system: NCI-H460 (human NSCLC) cells; test: In vitro cell-uptake study: blocking of radiolabeled glutamate derivative uptake; type: cell-based; conditions: compound 1 mM, 30 minutes, mean ± SD, without compound = 100%
Experimental: The ability of compounds from the present invention to compete with radiolabeled glutamate derivatives for uptake into tumor cells was examined. NCI-H460 (human NSCLC) cells, grown adherently in 48 well plates were used for these competition-experiments. Approximately 100.000 cells were co-incubated in PBS-buffer containing 0.1% BSA with a radiolabeled Glutamic acid derivative and several compounds, which were used at a concentration of 1 mM for 30 minutes. After this time, the cell bound radioactivity was determined.

[2] = system: NCI-H460 (human NSCLC) cells; test: Cell uptake studies: 30 min uptake in H460 cells; type: cell-based; conditions: 0.25 MBq tracer, PBS 0.1% BSA
Experimental: For determination of the biological activity, the F18 labeled derivatives were used as tracers in cell uptake experiments. NCI-H460 (human NSCLC) cells, grown adherently in 48 well plates were used for these uptake-experiments. Approximately 100.000 cells were incubated with 0.25 MBq of the tracers for 30 min in PBS-buffer containing 0.1% BSA. After this time, the cell-bound radioactivity was determined using a γ-counter.

xCT (SLC7A11) = target: T1, xCT (SLC7A11) (Homo sapiens, UniProt Q9UPY5); test: Competition profile indicating uptake via xCT (SLC7A11); type: cell-based; conditions: NCI-H460 cells; for competition profile / uptake mechanism of the tracer: co-incubation with 1 mM cold competitors; for reduction of [^18F]-12 uptake by excess competitor: competitor 1 mM
T1 construct: NCI-H460 tumor cells were co-incubated with the F-18 labeled tracer and several cold derivatives; endogenous in cells; host or cells: NCI-H460 tumor cells
T1 sequence (Q9UPY5 1-501): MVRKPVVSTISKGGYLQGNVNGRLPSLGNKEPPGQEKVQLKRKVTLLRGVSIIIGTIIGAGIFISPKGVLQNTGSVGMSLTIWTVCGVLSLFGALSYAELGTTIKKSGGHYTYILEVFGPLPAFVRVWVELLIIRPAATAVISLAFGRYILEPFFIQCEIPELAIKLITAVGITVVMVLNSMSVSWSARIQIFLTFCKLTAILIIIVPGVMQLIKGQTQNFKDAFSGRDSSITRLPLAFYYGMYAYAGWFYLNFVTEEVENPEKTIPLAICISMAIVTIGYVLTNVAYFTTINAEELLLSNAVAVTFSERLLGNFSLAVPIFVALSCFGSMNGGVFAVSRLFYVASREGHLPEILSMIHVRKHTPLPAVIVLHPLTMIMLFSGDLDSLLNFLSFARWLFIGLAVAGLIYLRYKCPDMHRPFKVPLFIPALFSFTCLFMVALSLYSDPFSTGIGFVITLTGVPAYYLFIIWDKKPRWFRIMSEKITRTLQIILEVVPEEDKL
T1 sequence (P08195 1-529 partner): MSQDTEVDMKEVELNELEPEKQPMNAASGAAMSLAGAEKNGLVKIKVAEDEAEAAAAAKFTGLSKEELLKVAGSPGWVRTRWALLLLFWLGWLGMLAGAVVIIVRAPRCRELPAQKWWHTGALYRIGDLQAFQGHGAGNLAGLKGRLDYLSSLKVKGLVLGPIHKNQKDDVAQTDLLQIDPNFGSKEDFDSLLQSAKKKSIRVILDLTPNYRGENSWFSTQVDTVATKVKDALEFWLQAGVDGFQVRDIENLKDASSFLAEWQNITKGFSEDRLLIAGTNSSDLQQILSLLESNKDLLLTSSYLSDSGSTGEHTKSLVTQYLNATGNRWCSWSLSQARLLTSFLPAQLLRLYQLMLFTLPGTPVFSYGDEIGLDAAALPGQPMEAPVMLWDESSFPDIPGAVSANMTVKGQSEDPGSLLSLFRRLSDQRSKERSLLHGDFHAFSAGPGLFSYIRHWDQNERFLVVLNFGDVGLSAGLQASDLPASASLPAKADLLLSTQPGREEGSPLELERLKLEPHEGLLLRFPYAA
Experimental: For determination of the responsible uptake mechanism, NCI-H460 tumor cells were co-incubated with the F-18 labeled tracer and several cold derivatives. These derivatives were used at a concentration of 1 mM, which is a large excess compared to the tracer. L-Glutamic acid, L-cystine, Carboxyphenylglycine (CPG) were used as competitors. In addition, also D-Glutamic acid, as well as L-aspartic acid and D-aspartic acid were used in this competition experiments. […] The same experiments were performed using [^18F]-1, [^18F]-4, [^18F]-9, [^18F]-8, [^18F]-25 and [^18F]-22.

NCI-H460 tumor [3] = test: In vivo biodistribution in NCI-H460 tumor bearing mice; conditions: for T/Blood / T/Muscle: 1 h post injection
Experimental: (§1) To test the pharmacokinetic properties of compounds from the present invention, all F18-labeled compounds were examined by biodistribution studies in NCI-H460 tumor bearing mice. Female NMRI (nu/nu) mice were inoculated with 5×10^6 NCI-H460 tumor cells 8 to 10 days before the biodistribution studies. 185 kBq of activity of the fluorinated compound was injected and at least n=3 mice were used for every time point. After injection of the F18-labeled compound, mice were sacrificed at defined time-points. All organs were removed and radioactivity was determined using a γ-counter.
To compare the tumor uptake and retention of radioactivity of different ^18F-labeled derivatives from the present invention, biodistribution studies were performed in NCI-H460 tumor bearing NMRI (nu/nu) mice as described above.
To compare the kidney clearance of several ^18F-labeled derivatives from the present invention, biodistribution studies were performed in NCI-H460 tumor bearing female NMRI (nu/nu) mice as described above. […] After 2 h p.i., less than 1% ID/g can be found in the kidneys.
For comparison of pancreas uptake and clearance of several ^18F-labeled derivatives from the present invention, biodistribution studies were performed in NCI-H460 tumor bearing NMRI (nu/nu) mice as described above. […] After 2 h p.i., less than 2% ID/g can be found in the pancreas.
as §1, with “and” for “for every time point. After injection of the F18-labeled compound, mice were”, “time-points raning from 15 min pi up to 2 h p.i.” for “time-points.”, “γ-counter. […] High tumor uptake values of >3% ID/g were obtained with various compounds from the present invention.” for “γ-counter.”

NCI-H460 tumor [4] = test: PET imaging in NCI-H460 tumor bearing nude-rats; type: in vivo; conditions: PET ROI analysis, 1 h p.i.
Experimental: c) Beside PET-imaging studies in mice, also the imaging properties of [^18F]-12 in rats were examined. NCI-H460 tumor cells were inoculated into the right flank of nude-rats (RH-Foxn1 nu/nu) 8 to 10 days before the PET study. PET images were acquired at 60 min after injection of approximately 10 MBq for 10 minutes. The H460 tumor was nicely visible (0.9% ID/g as determined by ROI analysis). Beside some minor uptake into the liver and kidneys due to the excretion of the compound, no uptake into other non-target tissues was observed.
To test the imaging properties, compounds from the present invention were evaluated in PET imaging studies using tumor bearing rats. NCI-H460 tumor cells were inoculated into the right flank of nude-rats (RH-Foxn1 nu/nu) 8 to 10 days before the PET study. PET images were acquired at 60 min after injection of approximately 10 MBq for 10 minutes. After the imaging study, region-of-interest (ROI) analysis was performed and activity in tumor, liver and kidney was determined. […] High tumor uptake values of >1% […] in this rat model were obtained with various compounds from the present invention. A favorable clearance profile of all compounds enables excellent tumor detection in PET imaging studies in tumor bearing rats.

## N[C@H](C[C@@H](Cc1ccc(OCCF)cc1)C(=O)O)C(=O)O [Example 23, (4R)-4-[4-(2-Fluoroethoxy)benzyl]-D-glutamic acid]
[1]
  Uptake of radiolabeled glutamate-derivative (% of control): 43.8 ± 3.2 % of control

## N[C@@H](C[C@H](Cc1ccc(OCCCF)cc1)C(=O)O)C(=O)O [Example 4, (4S)-4-[4-(3-Fluoropropoxy)benzyl]-L-glutamic acid]
[1]
  Uptake of radiolabeled glutamate-derivative (% of control): 3.0 ± 0.1 % of control

## N[C@@H](C[C@H](CCCc1ccc(OCC[18F])cc1)C(=O)O)C(=O)O [[^18F]-25, (4S)-4-{3-[4-(2-[^18F]Fluoroethoxy)phenyl]propyl}-L-glutamic acid]
[2]
  30 min uptake into H460 cells [%/100.000 cells]: 3.1 ± 01 %/100.000 cells
xCT (SLC7A11)
  competition profile / uptake mechanism of the tracer: identical competition profile
NCI-H460 tumor [3]
  Kidney (% ID/g at 1 h p.i.): 0.2 ± 0.05 % ID/g
  Liver (% ID/g at 1 h p.i.): 0.2 ± 0.1 % ID/g
  Pancreas (% ID/g at 1 h p.i.): 0.04 ± 0.01 % ID/g
  Tumor (% ID/g at 1 h p.i.): 0.5 ± 0.1 % ID/g
  Urine (% ID at 1 h p.i.): 86.6 ± 4.4 % ID
  T/Blood: 9.7
  T/Muscle: 32.2

## N[C@@H](CSSC[C@H](N)C(=O)O)C(=O)O [L-cystine, reference compound]
[1]
  Uptake of radiolabeled glutamate-derivative (% of control): 10.7 ± 0.7 % of control

## N[C@@H](CC(=O)O)C(=O)O [L-aspartic, L-aspartic acid, reference compound]
xCT (SLC7A11)
  reduction of [^18F]-12 uptake by excess competitor: less effective competitors

## N[C@@H](CC(CCCc1ccc(CCCF)cc1)C(=O)O)C(=O)O (stereo partly drawn) [Example 19, 4-{3-[4-(3-Fluoropropyl)phenyl]propyl}-L-glutamic acid]
[1]
  Uptake of radiolabeled glutamate-derivative (% of control): 6.6 ± 1.6 % of control

## N[C@@H](CCC(=O)O)C(=O)O [L-glutamic acid, L-glutamate, reference compound]
[1]
  Uptake of radiolabeled glutamate-derivative (% of control): 26.1 ± 0.3 % of control

## N[C@@H](CC(Cc1ccc(CCCF)cc1)C(=O)O)C(=O)O (stereo partly drawn) [Example 9, 4-[4-(3-Fluoropropyl)benzyl]-L-glutamic acid]
[1]
  Uptake of radiolabeled glutamate-derivative (% of control): 14.2 ± 1.0 % of control

## N[C@H](CCC(=O)O)C(=O)O [D-Glutamic acid, reference compound]
xCT (SLC7A11)
  reduction of [^18F]-12 uptake by excess competitor: less effective competitors

## N[C@@H](CC(Cc1ccc(O[C@H]2C[C@@H]([18F])C2)cc1)C(=O)O)C(=O)O (stereo partly drawn) [[^18F]-22, 4-{4-[(cis-3-[^18F]Fluorocyclobutyl)oxy]benzyl}-L-glutamic acid]
[2]
  30 min uptake into H460 cells [%/100.000 cells]: 4.2 ± 0.1 %/100.000 cells
xCT (SLC7A11)
  competition profile / uptake mechanism of the tracer: identical competition profile
NCI-H460 tumor [3]
  Kidney (% ID/g at 1 h p.i.): 1.8 ± 0.6 % ID/g
  Liver (% ID/g at 1 h p.i.): 4.1 ± 0.8 % ID/g
  Pancreas (% ID/g at 1 h p.i.): 0.63 ± 0.04 % ID/g
  Tumor (% ID/g at 1 h p.i.): 1.3 ± 0.5 % ID/g
  Urine (% ID at 1 h p.i.): 64.9 ± 4.3 % ID
  T/Blood: 5.1
  T/Muscle: 32.3
NCI-H460 tumor [4]
  Kidney (% ID/g at 1 h p.i.): 0.5 % ID/g
  Liver (% ID/g at 1 h p.i.): 0.6 % ID/g
  Tumor (Max % ID/g at 1 h p.i.): 0.9 % ID/g
  Tumor (Mean % ID/g at 1 h p.i.): 0.3 % ID/g

## N[C@@H](CCC(Cc1ccc(OCCF)cc1)C(=O)O)C(=O)O (stereo partly drawn) [Example 12, (2S)-2-Amino-5-[4-(2-Fluoroethoxy)benzyl]-hexanedioic acid]
[1]
  Uptake of radiolabeled glutamate-derivative (% of control): 3.9 ± 0.3 % of control

## N[C@H](CC(=O)O)C(=O)O [D-aspartic acid, reference compound]
xCT (SLC7A11)
  reduction of [^18F]-12 uptake by excess competitor: less effective competitors

## N[C@@H](C[C@H](Cc1ccc(OCCF)cc1)C(=O)O)C(=O)O [Example 1, (4S)-4-[4-(2-Fluoroethoxy)benzyl]-L-glutamic acid]
[1]
  Uptake of radiolabeled glutamate-derivative (% of control): 5.0 ± 0.2 % of control

## N[C@@H](CC(Cc1ccc(NCCC[18F])cc1)C(=O)O)C(=O)O (stereo partly drawn) [[^18F]-8, 4-{4-[(3-[^18F]Fluoropropyl)amino]benzyl}-L-glutamic acid]
[2]
  30 min uptake into H460 cells [%/100.000 cells]: 15.3 ± 0.1 %/100.000 cells
xCT (SLC7A11)
  competition profile / uptake mechanism of the tracer: identical competition profile
NCI-H460 tumor [3]
  Kidney (% ID/g at 1 h p.i.): 2.8 ± 0.6 % ID/g
  Liver (% ID/g at 1 h p.i.): 1.3 ± 0.3 % ID/g
  Pancreas (% ID/g at 1 h p.i.): 2.2 ± 0.4 % ID/g
  Tumor (% ID/g at 1 h p.i.): 4.6 ± 0.9 % ID/g
  Urine (% ID at 1 h p.i.): 92.7 ± 3.8 % ID
  T/Blood: 26.8
  T/Muscle: 46.3

## N[C@@H](C[C@H](CCCc1ccc(OCCF)cc1)C(=O)O)C(=O)O [Example 25, (4S)-4-{3-[4-(2-Fluoroethoxy)phenyl]propyl}-L-glutamic acid]
[1]
  Uptake of radiolabeled glutamate-derivative (% of control): 20.1 ± 0.4 % of control

## N[C@@H](CC(Cc1ccc(CCC[18F])cc1)C(=O)O)C(=O)O (stereo partly drawn) [[^18F]-9, 4-[4-(3-[^18F]Fluoropropyl)benzyl]-L-glutamic acid]
[2]
  30 min uptake into H460 cells [%/100.000 cells]: 4.3 ± 0.2 %/100.000 cells
xCT (SLC7A11)
  competition profile / uptake mechanism of the tracer: identical competition profile
NCI-H460 tumor [3]
  Kidney (% ID/g at 1 h p.i.): 0.7 ± 0.04 % ID/g
  Liver (% ID/g at 1 h p.i.): 0.2 ± 0.1 % ID/g
  Pancreas (% ID/g at 1 h p.i.): 0.1 ± 0.01 % ID/g
  Tumor (% ID/g at 1 h p.i.): 1.8 ± 0.9 % ID/g
  Urine (% ID at 1 h p.i.): 86.3 ± 7.1 % ID
  T/Blood: 20.5
  T/Muscle: 61.7
